According to PubChem BioAssay AID2060906 (Molecular Pharmacology Branch, DTP, NCI, 2025):

Test system: 485176-168-R4-J1-PDC complex spheroid growth
Test: Anticancer human tumor 485176-168-R4-J1-PDC patient-derived pancreatic adenocarcinoma cell line growth inhibition [RAS]
Conditions: for IC50: curve of first compound; for viability, T/C: stronger effect = lower value
Excerpt: RAS pathway inhibitors in Combinations in Complex Spheroids
A high-throughput screen of multi-cell type tumor spheroids was designed to identify active combinations of RAS pathway inhibitors and targeted small molecules. Complex spheroids include a stromal component modeled by human endothelial cells (HUVEC) and fibroblasts modeled by human mesenchymal stem cells (MSCs). The concentration ranges selected for each drug and investigational agent were based upon clinically achievable concentrations if the clinical Cmax of the agent was known.
Compounds. The drugs and investigational agents: abemaciclib (NSC768073), cobimetinib (NSC768068), divarasib (GDC6063, NSC841802), docetaxel (NSC628503), GDC-1971 (RLY-1971, NSC841576), gemcitabine (NSC613327), inavolisib (NSC800729), ipatasertib (NSC767898), KB-0742 (NSC834161), MRTX-1133 (NSC836407), osimertinib (NSC779217), RMC-4630 (NSC839698), RMC-6236 (NSC851965), RMC-6291 (NSC852671), Ro-3306 (NSC812927), sapanisertib (NSC764658), SN-38 (NSC673596), staurosporine (NSC755774), SY5609 (NSC837396), and tovorafenib (DAY101, NSC766906), were obtained from the National Cancer Institute (NCI) Developmental Therapeutics Program Chemical Repository. The FDA-approved anticancer drug set is available from the NCI Developmental Therapeutics Program. […] The stock solutions were prepared in dimethyl sulfoxide (DMSO, Sigma-Aldrich, St. Louis, MO, cat. D2650) at 800-fold the tested concentration and stored at -70 degrees C prior to their use. All drugs and investigational agents were tested over a range starting from a high concentration at or near the clinical Cmax and decreasing in half-log increments. If the clinical Cmax for an agent had not been determined, the highest concentration tested was 10 microM.
Cell Culture. All cells were maintained in an incubator at 37 degrees C and 5% CO2 with 95% humidity. The PDC lines were cultured according to standard operating procedures established by the NCI PDMR. All PDCs were thawed and cultured in Matrigel-coated flasks prepared with a working solution of 1X Ham's F-12 nutrient mix, without supplementation (Invitrogen, Waltham, MA, cat. 11765054), 100 U/mL penicillin-streptomycin (Invitrogen, cat. 15140122), and 2.5% Matrigel (Corning Inc., Corning, NY, cat. 354248) for the first three passages. The 362531-283-R-J2-PDC and 782815-120-R-J1-PDC lines were cultured in 6C/Colon 1B media, which includes advanced DMEM/F-12 (Thermo Fisher Scientific, cat. 12634028), 10 mM HEPES (Thermo Fisher Scientific, cat. 15630080), 1X GlutaMAX supplement (Thermo Fisher Scientific, cat. 35050061), 0.1 mg/mL primocin (InvivoGen, San Diego, CA, cat. ant-pm-2), 10% defined fetal bovine serum, heat inactivated (HyClone Laboratories Inc., Logan, UT, cat. SH30070.03HI), 50% L-WRN conditioned media (ATCC, cat. CRL-3276), 1.25 mM N-Acetyl-L-cysteine (Sigma-Aldrich, cat. A9165), 10 mM nicotinamide (Sigma-Aldrich, cat. N0636), 1X B-27 supplement (Thermo Fisher Scientific, cat. 17504044), 1X N-2 supplement (Thermo Fisher Scientific, cat. 17502048), 50 ng/mL human EGF (Thermo Fisher Scientific, cat. PHG0311), and 10 microM Y-27632 dihydrochloride (Tocris Bioscience, cat. 1254). The K12877-001-R-J1-PDC line was cultured in 6I media, which includes all 6C/Colon 1B media plus 10 ng/mL human FGF-10 (PeproTech, cat. 100-26), 1 ng/mL human FGF-2 (PeproTech, cat. 100-18B), 1 µM prostaglandin E2 (Tocris Bioscience, cat. 2296), […] hydrocortisone (Sigma-Aldrich, cat. H4001), and […] bovine insulin (Sigma-Aldrich, cat. I6634). The K86415-001-R-J1-PDC line was cultured in 6D media, which includes all 6C/Colon 1B media components minus the L-WRN conditioned media. The 485176-168-R4-J1-PDC was cultured in PANC media, which includes all 6C/Colon 1B media plus 100 ng/mL human FGF-10 (PeproTech, cat. 100-26), 500 nM SB-431542 (Selleckchem, cat. S1067), and 10 nM gastrin (Tocris Bioscience, cat. 3006). […]
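Further: spheroids exposed to compounds for seven days before readout.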
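Wherever viability, T/C is given: luminescence viability expressed relative to DMSO vehicle wells set as 100%.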

SMILES: CC(C)n1nc(-c2ccc3oc(N)nc3c2)c2c(N)ncnc21 + C=CC(=O)N1CCN(c2nc(OCC3CCCN3C)nc3c(F)c(-c4nc(N)cc(C)c4C(F)(F)F)c(Cl)cc23)C(C)C1
- IC50 (second compound 0.00316 µM): 20.1 nM
- IC50 (second compound 0.01 µM): 27.2 nM
- IC50 (second compound 0.0316 µM): 16.6 nM
- IC50 (second compound 0.1 µM): 35.5 nM
- IC50 (second compound 0.316 µM): 21.5 nM
- IC50 (second compound 1 µM): 23.6 nM
- viability, T/C (second compound 0.00316 µM, first compound 0.000316 µM): 97.2%
- viability, T/C (second compound 0.00316 µM, first compound 0.001 µM): 92.6%
- viability, T/C (second compound 0.00316 µM, first compound 0.00316 µM): 84.2%
- viability, T/C (second compound 0.00316 µM, first compound 0.01 µM): 66.1%
- viability, T/C (second compound 0.00316 µM, first compound 0.0316 µM): 39.3%
- viability, T/C (second compound 0.00316 µM, first compound 0.1 µM): 27%
- viability, T/C (second compound 0.01 µM, first compound 0.000316 µM): 81.8%
- viability, T/C (second compound 0.01 µM, first compound 0.001 µM): 88.8%
- viability, T/C (second compound 0.01 µM, first compound 0.00316 µM): 91.8%
- viability, T/C (second compound 0.01 µM, first compound 0.01 µM): 67.5%
- viability, T/C (second compound 0.01 µM, first compound 0.0316 µM): 48.6%
- viability, T/C (second compound 0.01 µM, first compound 0.1 µM): 18.8%
- viability, T/C (second compound 0.0316 µM, first compound 0.000316 µM): 89.9%
- viability, T/C (second compound 0.0316 µM, first compound 0.001 µM): 90%
- viability, T/C (second compound 0.0316 µM, first compound 0.00316 µM): 81.2%
- viability, T/C (second compound 0.0316 µM, first compound 0.01 µM): 54.7%
- viability, T/C (second compound 0.0316 µM, first compound 0.0316 µM): 42.3%
- viability, T/C (second compound 0.0316 µM, first compound 0.1 µM): 23.8%
- viability, T/C (second compound 0.1 µM, first compound 0.000316 µM): 109%
- viability, T/C (second compound 0.1 µM, first compound 0.001 µM): 89.5%
- viability, T/C (second compound 0.1 µM, first compound 0.00316 µM): 84.7%
- viability, T/C (second compound 0.1 µM, first compound 0.01 µM): 74.5%
- viability, T/C (second compound 0.1 µM, first compound 0.0316 µM): 56%
- viability, T/C (second compound 0.1 µM, first compound 0.1 µM): 23.3%
- viability, T/C (second compound 0.316 µM, first compound 0.000316 µM): 92%
- viability, T/C (second compound 0.316 µM, first compound 0.001 µM): 78.3%
- viability, T/C (second compound 0.316 µM, first compound 0.00316 µM): 85.7%
- viability, T/C (second compound 0.316 µM, first compound 0.01 µM): 62.6%
- viability, T/C (second compound 0.316 µM, first compound 0.0316 µM): 43.6%
- viability, T/C (second compound 0.316 µM, first compound 0.1 µM): 30.1%
- viability, T/C (second compound 1 µM, first compound 0.000316 µM): 81.1%
- viability, T/C (second compound 1 µM, first compound 0.001 µM): 92.6%
- viability, T/C (second compound 1 µM, first compound 0.00316 µM): 82%
- viability, T/C (second compound 1 µM, first compound 0.01 µM): 72%
- viability, T/C (second compound 1 µM, first compound 0.0316 µM): 42.5%
- viability, T/C (second compound 1 µM, first compound 0.1 µM): 22.2%
